According to patent publication US11780832B2, “Lactivicin compounds, their preparation and use as antibacterial agents” (priority 2021, dated 2023):
Converted amounts (≈) assume the structure as drawn.

Key:
Assay in all cases: MIC, CLSI broth microdilution
Assay type in all cases: cell-based
[1] = tested on: Escherichia coli Isogenic TEM-26
Experimental: (§1) Gram-negative and Gram-positive bacterial strains used during the in vitro minimum inhibitory concentration (MIC) determination were obtained either from the American Type Culture Collection (ATCC) or from clinical specimens. All strains were characterized genotypically and the respective antibiotic resistance markers for each strain were identified.
(§2) Isolates were sub-cultured onto appropriate media and stocked in skim milk at −80° C. Following two subcultures from frozen stock, in vitro antimicrobial susceptibility testing was performed using the Clinical and Laboratory Standards Institute (CLSI) broth microdilution method. Briefly, fresh cultures were suspended in culture media to give a final stock inoculum size of 5×10^7 colony forming units per milliliter of broth (CFU/mL). […] 100 μL of the stock solutions were added to the first wells in a 96-well plate and were then diluted using a 2-fold dilution method to give a range of 32-0.025 μg/mL. 100 μL of the bacterial suspensions were then added to the 96-well plates to give a final working inoculum size of 5×10^5 CFU/mL. The final compound concentration range was 16-0.0125 μg/mL. […] MICs for comparator agents were determined using custom-designed, in-house prepared 96-well broth microdilution panels.

[2] = tested on: Escherichia coli Isogenic TEM-10
Experimental: as §1, §2

[3] = tested on: Escherichia coli ATCC 25922; conditions: ATCC25922
Experimental: as §1, §2

[4] = tested on: Serratia marcescens SME-2; conditions: SME2
Experimental: as §1, §2

[5] = tested on: Klebsiella pneumoniae OXA-48, SHV-1
Experimental: as §1, §2

[6] = tested on: Escherichia coli CTX-M-15; conditions: CTXM15
Experimental: as §1, §2

[7] = tested on: Citrobacter freundii species complex OXA-181; conditions: Citrobacter freundii species complex, OXA-181; read-out: MIC
Experimental: as §1, §2

[8] = tested on: Pseudomonas aeruginosa ATCC 27853; conditions: ATCC27853
Experimental: as §1, §2

[9] = tested on: Klebsiella pneumoniae OXA-163, OXA-1_OXA-30, SHV-1, TEM-1
Experimental: as §1, §2

[10] = tested on: Klebsiella oxytoca KPC-2, TEM-1; conditions: KPC-2, TEM-1, read-out: MIC
Experimental: as §1, §2

[11] = tested on: Klebsiella pneumoniae KPC-3; conditions: KPC3, KPC-3, read-out: MIC
Experimental: as §1, §2

[12] = tested on: Escherichia coli Empty pSMART plasmid
Experimental: as §1, §2

[13] = tested on: Pseudomonas aeruginosa AmpC overexpressed
Experimental: as §1, §2

[14] = tested on: Escherichia coli pSMART_Cfreundii_AmpC
Experimental: as §1, §2

[15] = tested on: Serratia marcescens AmpC overexpressed
Experimental: as §1, §2

Escherichia coli CMY-2 = conditions: CMY2
Experimental: as §1, §2

[16] = tested on: Escherichia coli pSMART_Ecloacae_AmpC
Experimental: as §1, §2

[17] = tested on: Acinetobacter baumannii ATCC 19606; conditions: ATCC19606
Experimental: as §1, §2

[18] = tested on: Klebsiella pneumoniae SHV-12; conditions: SHV12, SHV-12, read-out: MIC
Experimental: as §1, §2

[19] = tested on: Pseudomonas aeruginosa OprD negative
Experimental: as §1, §2

Escherichia coli SHV-12 = conditions: SHV12
Experimental: as §1, §2

[20] = tested on: Klebsiella pneumoniae KPC-2; conditions: KPC2
Experimental: as §1, §2

[21] = tested on: Klebsiella aerogenes VIM-1, SHV-12
Experimental: as §1, §2

[22] = tested on: Enterobacter cloacae species complex NDM-1
Experimental: as §1, §2

SMILES	MIC [1]	MIC [2]	MIC [3]	MIC [4]	MIC [5]	MIC [6]	MIC [7]	MIC [8]	MIC [9]	MIC [10]	MIC [11]	MIC [12]	MIC [13]	MIC [14]	MIC [15]	MIC (Escherichia coli CMY-2)	MIC [16]	MIC [17]	MIC [18]	MIC [19]	further results
Nc1nc(/C(=N/OC2(C(=O)O)CCC(Cl)(Cl)CC2)C(=O)N[C@H]2CON(C3(C(=O)O)C[C@H](N4C(=O)c5cc(O)c(O)cc5C4=O)C(=O)O3)C2=O)cs1 (stereo partly drawn) [Cmpd 12, (4S)-2-[(4S)-4-{[(2Z)-2-(2-amino-1,3-thiazol-4-yl)-2-{[(1-carboxy-4,4-dichlorocyclohexyl)oxy]imino}acetyl]amino}-3-oxo-1,2-oxazolidin-2-yl]-4-(5,6-dihydroxy-1,3-dioxo-1,3-dihydro-2H-isoindol-2-yl)-5-oxooxolane-2-carboxylic acid]	0.06 µg/mL (≈ 0.0778 µM)	0.06 µg/mL (≈ 0.0778 µM)	0.25 µg/mL (≈ 0.324 µM)	0.12 µg/mL (≈ 0.156 µM)	≤ 0.015 µg/mL	4 µg/mL (≈ 5.18 µM)	0.03 µg/mL (≈ 0.0389 µM)	0.25 µg/mL (≈ 0.324 µM)	0.12 µg/mL (≈ 0.156 µM)	≤ 0.015 µg/mL	0.06 µg/mL (≈ 0.0778 µM)	0.03 µg/mL (≈ 0.0389 µM)	2 µg/mL (≈ 2.59 µM)	0.06 µg/mL (≈ 0.0778 µM)	0.25 µg/mL (≈ 0.324 µM)	1 µg/mL (≈ 1.3 µM)	0.06 µg/mL (≈ 0.0778 µM)	0.25 µg/mL (≈ 0.324 µM)	0.03 µg/mL (≈ 0.0389 µM)	0.25 µg/mL (≈ 0.324 µM)	MIC (Escherichia coli SHV-12): 2 µg/mL (≈ 2.59 µM); MIC [20]: 0.06 µg/mL (≈ 0.0778 µM); MIC [21]: 0.5 µg/mL (≈ 0.648 µM); MIC [22]: 2 µg/mL (≈ 2.59 µM)
Nc1nc(/C(=N/OC2(C(=O)O)CNC2)C(=O)N[C@H]2CON(C3(C(=O)O)C[C@H](N4C(=O)c5cc(O)c(O)cc5C4=O)C(=O)O3)C2=O)cs1 (stereo partly drawn) [Cmpd 7, 3-({(Z)-[1-(2-amino-1,3-thiazol-4-yl)-2-({(4S)-2-[(4S)-2-carboxy-4-(5,6-dihydroxy-1,3-dioxo-1,3-dihydro-2H-isoindol-2-yl)-5-oxooxolan-2-yl]-3-oxo-1,2-oxazolidin-4-yl}amino)-2-oxoethylidene]amino}oxy)azetidine-3-carboxylic acid]	0.25 µg/mL (≈ 0.37 µM)	0.12 µg/mL (≈ 0.178 µM)	1 µg/mL (≈ 1.48 µM)	0.5 µg/mL (≈ 0.74 µM)	0.12 µg/mL (≈ 0.178 µM)	8 µg/mL (≈ 11.8 µM)	1 µg/mL (≈ 1.48 µM)	> 16 µg/mL	0.5 µg/mL (≈ 0.74 µM)	0.12 µg/mL (≈ 0.178 µM)	0.5 µg/mL (≈ 0.74 µM)	0.12 µg/mL (≈ 0.178 µM)	> 16 µg/mL	1 µg/mL (≈ 1.48 µM)	> 16 µg/mL	4 µg/mL (≈ 5.92 µM)	0.5 µg/mL (≈ 0.74 µM)	> 16 µg/mL	0.5 µg/mL (≈ 0.74 µM)	> 16 µg/mL	MIC (Escherichia coli SHV-12): 1 µg/mL (≈ 1.48 µM); MIC [20]: 0.5 µg/mL (≈ 0.74 µM); MIC [21]: 8 µg/mL (≈ 11.8 µM); MIC [22]: > 16 µg/mL
